From patent US5783597A, “2,5-disubstituted thiophenes: inhibitors of 5-lipoxygenase and inducible cyclooxygenase (COX-2) enzymes, composition and use” (Ortho Pharmaceutical Corporation, priority 1997, dated 1998)

Assays:
LTB4 levels = test: Carrageenan-induced inflammation in subcutaneous chambers in beagle dogs: LTB4 levels in fluid exudate (Procedure IV); type: in vivo; conditions: oral
Description: (§1) Carrageenan-Induced Localized Inflammation In Subcutaneous Chambers Implanted In Beagle Dogs
(§2) Sterile perforated teflon chambers (wiffle golf balls) were surgically implanted subcutaneously in the dorsal neck fold of beagle dogs (8-13 kg, mixed sex). After a recovery period of 1 month, a 1 ml sample of fluid exudate from each dog was aspirated from within the chamber using a 1 ml syringe and 20 gauge 1 inch needle inserted through one of the perforations in the ball. Immediately after obtaining the sample, 1.5 ml of 0.33% sterile carrageenan lambda (Sigma Chemical Co., St. Louis, Mo.) was injected into the chamber. Dilutions of the baseline samples were made in saline and analyzed for leukocyte count using a Coulter Counter (6.08-50 μm range). The sample was also analyzed for concentrations of PGE2 and LTB4 by adding 200 μl of sample to 1 ml ethanol and centrifuging the precipitate (1,500 X g, 7 min). The supernatant was aspirated and stored at 0° C. until enzyme linked immunosorbant assays (ELISAs) were performed (ELISA Technologies, Lexington, Ky.). […]
(§3) Drug effects can be evaluated on several important aspects of inflammation using this in-vivo assay. […] Selectivity of a COX inhibitor can be determined by comparing PGE2 inhibition in peripheral blood (COX-1) to that of the inflammatory fluid exudate in the chamber (COX-2).

LTB4 production = test: Ex vivo LTB4 production in peripheral (whole) blood of beagle dogs after oral dosing (Procedure IV)
Description: as §2, with “Ky.). Samples were also drawn at 5 and 24 hours post carrageenan challenge and treated in a similar manner.” for “Ky.).”
as §3

[1] = target: T1, Human Prostaglandin H2 Synthase Typ II (Cox-2) (Homo sapiens, UniProt P35354); test: Human Prostaglandin H2 Synthase Typ II (Cox-2) Whole Cell Assay, ECV-304 cells (Procedure III); type: cell-based; conditions: ECV-304 whole cells, PGE2 produced; read-out: Procedure III (COX-2) Wh Cell IC50
T1 construct: endogenous in cells; host or cells: ECV-304 cells treated with PMA and ionomycin for 16 hours
T1 sequence (P35354 18-604): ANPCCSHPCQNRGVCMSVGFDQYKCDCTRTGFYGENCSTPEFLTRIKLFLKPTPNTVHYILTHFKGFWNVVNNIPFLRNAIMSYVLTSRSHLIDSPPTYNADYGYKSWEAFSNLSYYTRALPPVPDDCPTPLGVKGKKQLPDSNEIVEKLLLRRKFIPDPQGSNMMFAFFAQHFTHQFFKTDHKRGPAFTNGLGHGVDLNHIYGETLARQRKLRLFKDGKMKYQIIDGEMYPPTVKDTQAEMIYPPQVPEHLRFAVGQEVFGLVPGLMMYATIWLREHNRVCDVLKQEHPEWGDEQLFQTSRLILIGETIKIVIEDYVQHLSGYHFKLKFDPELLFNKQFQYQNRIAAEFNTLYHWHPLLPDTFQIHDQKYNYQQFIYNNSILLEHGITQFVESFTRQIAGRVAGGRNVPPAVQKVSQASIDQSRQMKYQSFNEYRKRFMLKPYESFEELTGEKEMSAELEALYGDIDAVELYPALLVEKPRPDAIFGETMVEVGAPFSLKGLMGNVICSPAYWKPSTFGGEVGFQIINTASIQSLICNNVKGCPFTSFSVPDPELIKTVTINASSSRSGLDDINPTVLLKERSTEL
Description: Human Prostaglandin H2 Synthase Typ II (Cox-2) Whole Cell Assay (Multiple Concentrations)
ECV-304 (human, endothelial, umbilical cord) cells are maintained in culture in a suitable medium, and are trypsinized and plated at a density of 1×10^6 cells per well of a 6 well plate prior to assay. Approximately 28 hours later, 50 μg/ml PMA and […] ionomycin (both final concentrations) are added to each well and incubated for an additional 16 hours. Vehicle or test compounds are incubated with the cells for five minutes prior to initiation of Cox-2 enzyme activity by the addition of 30 μM arachidonic acid. Ten minutes later, an aliquot of the supernatant is withdrawn and the amount of PGE2 present quantitated by radioimmunoassay. Activity, reported as percent inhibition of PGE2 produced, is calculated as follows: […]

[2] = system: inflammatory cells (leukocyte influx); test: Carrageenan-induced inflammation in subcutaneous chambers in beagle dogs: cellular (leukocyte) influx (Procedure IV); type: in vivo; conditions: oral
Description: as §1, §2, §3

`CS(=O)(=O)Nc1ccc(Oc2ccc(F)cc2)s1` [Example 1] was tested, and the ED50 (LTB4 levels; Canis lupus familiaris, inflammatory chamber exudate, read-out: ED50 for inhibition of fluid LTB4 levels) was < 0.01 mg/kg, the “inhibition of LTB4 levels measured in the fluid” value (LTB4 levels; inflammatory chambers) was “dose related inhibition” and the ED50 (LTB4 production; Canis lupus familiaris, 5 h, five hours after oral administration, ex vivo, read-out: inhibition of peripheral LTB4 production, IC50) was 4.4 mg/kg. The “inhibition of LTB4 production in whole blood” value (LTB4 production; at 24 hours following dosing, oral) was “No inhibition of LTB4 production in whole blood was detected”, the IC50 [1] was 1.81 µM and the ED50 ([2]; Canis lupus familiaris, Leukocyte, inflammatory chamber exudate, read-out: ED50 for inhibition of cellular influx) was < 0.01 mg/kg. For the same compound, the “inhibition of accumulation of inflammatory cells in the exudate” value ([2]; inflammatory chambers) was “dose related inhibition”.
